Legend:
GRK2 [1] = biological target: T1, GRK2 (Homo sapiens, UniProt P25098); experiment: GRK2 Degradation Assay and Western Blot in PAXF1657 cells; type: cell-based; design: endogenous in cells; host or cells: PAXF1657; conditions: for inhibition at 0.3 µM: Conc 0.3 uM; for inhibition at 0.3 µM / inhibition at 1 µM / inhibition at 3 µM: read-out: Degradation Assay - 3 point: Degradation (%); for inhibition at 1 µM: Conc 1 uM; for inhibition at 3 µM: Conc 3 uM
T1 sequence (P25098 1-689): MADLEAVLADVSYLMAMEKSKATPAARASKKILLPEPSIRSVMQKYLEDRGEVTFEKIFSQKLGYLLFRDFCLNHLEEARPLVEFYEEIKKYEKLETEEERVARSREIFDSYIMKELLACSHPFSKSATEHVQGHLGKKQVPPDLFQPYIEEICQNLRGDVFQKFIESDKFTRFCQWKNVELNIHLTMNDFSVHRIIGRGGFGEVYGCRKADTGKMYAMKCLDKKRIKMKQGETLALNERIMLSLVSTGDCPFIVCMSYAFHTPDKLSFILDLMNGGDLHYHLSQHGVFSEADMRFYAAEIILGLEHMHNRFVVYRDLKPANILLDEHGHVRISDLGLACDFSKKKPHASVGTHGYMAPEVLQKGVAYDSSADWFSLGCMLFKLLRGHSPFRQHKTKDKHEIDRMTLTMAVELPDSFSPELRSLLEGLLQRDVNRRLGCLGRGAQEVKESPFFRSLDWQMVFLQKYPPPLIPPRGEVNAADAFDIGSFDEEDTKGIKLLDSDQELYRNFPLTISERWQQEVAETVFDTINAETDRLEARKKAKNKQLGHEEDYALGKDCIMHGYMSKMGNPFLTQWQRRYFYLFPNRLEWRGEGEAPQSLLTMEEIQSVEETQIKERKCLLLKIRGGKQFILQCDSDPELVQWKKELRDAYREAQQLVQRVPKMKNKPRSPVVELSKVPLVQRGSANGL
Procedure, shortened: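 GRK2 degradation judged by immunoblot: NP40 lysates separated by SDS-PAGE and probed for GRK2 and β-actin, with HRP/ECL detection. Lysates came from PAXF1657 cells exposed to 0–10 μM compound for 6–24 h after reaching 70% confluency.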

PAXF1657 KO Clone #4 = experiment: 7-day cellular proliferation assay (CellTiter-Glo), PAXF1657 KO Clone #4; type: cell-based; conditions: proliferation, read-out: GeoMean IC50 (uM) PAXF1657 KO Clone #4
Procedure, shortened: (§1)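 Cells plated at 500 per well and attached overnight. Next, 10-point inhibitor series added (30 μM-0.0002 μM, 0.3% DMSO) and a day-0 viability plate read. Then, after 3 days, medium with fresh compound. Finally, viability after 4 more days via CellTiter-Glo.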

PAXF1657 EV = experiment: 7-day cellular proliferation assay (CellTiter-Glo), PAXF1657 EV; type: cell-based; conditions: proliferation, read-out: GeoMean IC50 (UM) PAXF1657 EV
Procedure, shortened: as §1

GRK2 [2] = biological target: T1, GRK2; experiment: GRK2 Inhibition Assay (TR-FRET, Example 1); type: biochemical; conditions: Table 4; Example 1 assay; read-out: Enzymatic GRK2 IC50: Av IC50 GRK2
Procedure, shortened: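 TR-FRET phosphorylation readout: Eu anti-TopoIIα antibody with EDTA added after a 90 min RT kinase reaction of 1 nM GRK2, 7 μM ATP and 50 nM ULight-TopoIIα. Compounds were pre-incubated with enzyme 30 min at room temperature beforehand.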

inhibition at 0.3 µM (GRK2 [1])	inhibition at 1 µM (GRK2 [1])	inhibition at 3 µM (GRK2 [1])	DC50 (GRK2 [1]; PAXF1657, 24 h, read-out: Degradation Assay - Full Dose Response: IC50 (uM) [cell line: PAXF1657, time point: 24 h])	IC50 (GRK2 [2])	Structure (SMILES)	IC50 (PAXF1657 KO Clone #4)	IC50 (PAXF1657 EV)
46.7%	21.2%	0.218%	2.57 µM	14.1 nM	Cc1ncsc1-c1ccc(CNC(=O)[C@@H]2C[C@@H](O)CN2C(=O)[C@@H](NC(=O)CCCOCCOCCOCCCCCCCCOc2ccc([C@@H](C)NC(=O)c3cccc(NCc4nnc(-c5ccncn5)n4C)c3)cc2)C(C)(C)C)cc1 [Compound D148]	8.31 µM	100 nM
44%	43%	40%		> 1000 nM	C[C@H](NC(=O)c1cccc(NCc2nnc(-c3ccncn3)n2C)c1)c1ccc(OCCCCCOCCCOCC(=O)Nc2cccc3c2CN(C2CCC(=O)NC2=O)C3=O)cc1 (stereo partly drawn) [Compound D150, N-((1S)-1-(4-((5-(3-(2-((2-(2,6-dioxopiperidin-3-yl)-1-oxoisoindolin-4-yl)amino)-2-oxoethoxy)propoxy)pentyl)oxy)phenyl)ethyl)-3-(((4-methyl-5-(pyrimidin-4-yl)-4H-1,2,4-triazol-3-yl)methyl)amino)benzamide]	> 30 µM	27700 nM
56%	58%	34%		> 1000 nM	Cc1ncsc1-c1ccc(CNC(=O)[C@@H]2C[C@@H](O)CN2C(=O)[C@@H](NC(=O)COCCCOCCCCCOc2ccc([C@H](C)NC(=O)c3cccc(NCc4nnc(-c5ccncn5)n4C)c3)cc2)C(C)(C)C)cc1 [Compound D151]	9.65 µM	300 nM
24%	28%	38%		> 1000 nM	C[C@H](NC(=O)c1cccc(NCc2nnc(-c3ccncn3)n2C)c1)c1ccc(OCCCCCCOCCOCCOCCCCCC(=O)Nc2cccc3c2CN(C2CCC(=O)NC2=O)C3=O)cc1 (stereo partly drawn) [Compound D152, N-((1S)-1-(4-(6-(2-(2-(6-(2-(2,6-dioxopiperidin-3-yl)-1-oxoisoindolin-4-ylamino)-6-oxohexyloxy)ethoxy)ethoxy)hexyloxy)phenyl)ethyl)-3-((4-methyl-5-(pyrimidin-4-yl)-4H-1,2,4-triazol-3-yl)methylamino)benzamide]	> 30 µM	12700 nM
10%	12%	18%		125 nM	Cc1ncsc1-c1ccc(CNC(=O)[C@@H]2C[C@@H](O)CN2C(=O)[C@@H](NC(=O)CCCCCOCCOCCOCCCCCCOc2cccc([C@H](C)NC(=O)c3cccc(NCc4nnc(-c5ccncn5)n4C)c3)c2)C(C)(C)C)cc1 [Compound D153]	6.82 µM	340 nM
92%	87%	83%		25 nM	C[C@@H](NC(=O)c1cccc(NCc2nnc(-c3ccncn3)n2C)c1)c1cccc(OCCCCCOCCCOCCOc2ccc3c(c2)CN(C2CCC(=O)NC2=O)C3=O)c1 (stereo partly drawn) [Compound D160, N-((1R)-1-(3-((5-(3-(2-((2-(2,6-dioxopiperidin-3-yl)-1-oxoisoindolin-5-yl)oxy)ethoxy)propoxy)pentyl)oxy)phenyl)ethyl)-3-(((4-methyl-5-(pyrimidin-4-yl)-4H-1,2,4-triazol-3-yl)methyl)amino)benzamide]	> 30 µM	50 nM
51%	72.7%	72.9%		14.1 nM	Cc1ncsc1-c1ccc(CNC(=O)[C@@H]2C[C@@H](O)CN2C(=O)[C@@H](NC(=O)CCCCCOCCOCCOCCCCCCOc2cccc([C@@H](C)NC(=O)c3cccc(NCc4nnc(-c5ccncn5)n4C)c3)c2)C(C)(C)C)cc1 [Compound D162]	11.4 µM	490 nM
23.6%	39.4%	24%		14.5 nM	Cc1ncsc1-c1ccc([C@H](C)NC(=O)[C@@H]2C[C@@H](O)CN2C(=O)[C@@H](NC(=O)COCCCOCCCCCOc2cccc([C@@H](C)NC(=O)c3cccc(NCc4nnc(-c5ccncn5)n4C)c3)c2)C(C)(C)C)cc1 [Compound D169]	8.15 µM	120 nM
51.6%	72.9%	81.5%		12.1 nM	C[C@@H](NC(=O)c1cccc(NCc2nnc(-c3ccncn3)n2C)c1)c1cccc(OCCCCCCOCCOCC(=O)Nc2cccc3c2CN(C2CCC(=O)NC2=O)C3=O)c1 (stereo partly drawn) [Compound D170, N-((1R)-1-(3-((6-(2-(2-((2-(2,6-dioxopiperidin-3-yl)-1-oxoisoindolin-4-yl)amino)-2-oxoethoxy)ethoxy)hexyl)oxy)phenyl)ethyl)-3-(((4-methyl-5-(pyrimidin-4-yl)-4H-1,2,4-triazol-3-yl)methyl)amino)benzamide]	> 30 µM	410 nM
89.7%	90.6%	76.2%		28.7 nM	C[C@@H](NC(=O)c1cccc(NCc2nnc(-c3ccncn3)n2C)c1)c1cccc(OCCCCCOCCCOCCNc2ccc3c(c2)CN(C2CCC(=O)NC2=O)C3=O)c1 (stereo partly drawn) [Compound D171, N-((1R)-1-(3-(5-(3-(2-(2-(2,6-dioxopiperidin-3-yl)-1-oxoisoindolin-5-ylamino)ethoxy)propoxy)pentyloxy)phenyl)ethyl)-3-((4-methyl-5-(pyrimidin-4-yl)-4H-1,2,4-triazol-3-yl)methylamino)benzamide]	> 30 µM	90 nM
-7.47%	-8.22%	-15.9%		104 nM	C[C@@H](NC(=O)c1cccc(NCc2nnc(-c3ccncn3)n2C)c1)c1cccc(C(=O)N2CC(N3CCN(c4ccc5c(c4)CN(C4CCC(=O)NC4=O)C5=O)CC3)C2)c1 (stereo partly shown) [Compound D172]	> 30 µM	14100 nM
52.5%	48.5%	14.7%		18.6 nM	C[C@@H](NC(=O)c1cccc(NCc2nnc(-c3ccncn3)n2C)c1)c1ccc(OCCCN2CCN(c3ccc4c(c3)CN(C3CCC(=O)NC3=O)C4=O)CC2)cc1 (stereo partly shown) [Compound D173]	0.26 µM	30 nM

Structure (SMILES)	inhibition at 0.3 µM (GRK2 [1])	inhibition at 1 µM (GRK2 [1])	inhibition at 3 µM (GRK2 [1])	DC50 (GRK2 [1]; PAXF1657, 24 h, read-out: Degradation Assay - Full Dose Response: IC50 (uM) [cell line: PAXF1657, time point: 24 h])	IC50 (GRK2 [2])	IC50 (PAXF1657 KO Clone #4)	IC50 (PAXF1657 EV)
C[C@H](NC(=O)c1cccc(NCc2nnc(-c3ccncn3)n2C)c1)c1cccc(OCCCCCCOCCOCCOCCCC(=O)Nc2cccc3c2CN(C2CCC(=O)NC2=O)C3=O)c1 (stereo partly drawn) [Compound D154, N-((1S)-1-(3-(6-(2-(2-(4-(2-(2,6-dioxopiperidin-3-yl)-1-oxoisoindolin-4-ylamino)-4-oxobutoxy)ethoxy)ethoxy)hexyloxy)phenyl)ethyl)-3-((4-methyl-5-(pyrimidin-4-yl)-4H-1,2,4-triazol-3-yl)methylamino)benzamide]	25.1%	19.5%	9.15%		183 nM	> 30 µM	4390 nM
C[C@@H](NC(=O)c1cccc(NCc2nnc(-c3ccncn3)n2C)c1)c1cccc(OCCCCCCOCCOCCOCCCC(=O)Nc2cccc3c2CN(C2CCC(=O)NC2=O)C3=O)c1 (stereo partly drawn) [Compound D163, N-((1R)-1-(3-(6-(2-(2-(4-(2-(2,6-dioxopiperidin-3-yl)-1-oxoisoindolin-4-ylamino)-4-oxobutoxy)ethoxy)ethoxy)hexyloxy)phenyl)ethyl)-3-((4-methyl-5-(pyrimidin-4-yl)-4H-1,2,4-triazol-3-yl)methylamino)benzamide]	74.4%	81.5%	89.6%		16.6 nM	> 30 µM	370 nM

Reference: patent US20240174637A1, “DEGRADERS OF GRK2 AND USES THEREOF” (Sonata Therapeutics, Inc., priority 2021, published 2024)
